In brackets after ≈: the same amount, converted by molar mass. Where a SMILES comes first, the peptide text is derived from it. [ ]: non-standard residue; d: D form. d2Nal = N[C@H](Cc1ccc2ccccc2c1)C(=O)O; Pip(4-aza) = O=C(O)[C@@H]1CNCCN1; dNMeF = CN[C@H](Cc1ccccc1)C(=O)O; Pip = O=C(O)[C@@H]1CCCCN1; dPip = O=C(O)[C@H]1CCCCN1
Assays:
[1] = Aqueous solubility was determined; format: physicochemical
[2] = test system: Rattus norvegicus; assay: Dose required for 50% reduction of the contractile response of the uterus to OT (1 ug/kg, iv bolus) in DES-pretreated rats; format: functional
[3] = species on record: Rattus norvegicus; assay: Compound was evaluated for the inhibition of accumulation of total [3H]inositol phosphates stimulated by exposure of the tissue to OT; format: functional
[4] = species on record: Rattus norvegicus; assay: pA2 value was determined from regression analysis of log (dose ratio-1) vs -log [antagonist] (isolated uterus from DES-pretreated rats); format: functional; conditions: read-out: pA2 (converted)
[5] = target: T1, Vasopressin V2 receptor (Rattus norvegicus, UniProt Q00788); assay: Inhibition of [3H]arginine vasopressin binding to AVP-V2 site in rat kidney medulla.; format: tissue-based
[6] = target: Vasopressin V1a receptor (Rattus norvegicus, UniProt P30560); assay: Concentration required to displace 50% of [3H]arginine vasopressin from rat liver arginine vasopressin 1A (AVP-V1a) site.
[7] = target: T2, Oxytocin receptor (Rattus norvegicus) (UniProt P70536); assay: Inhibition of displacement of [3H]oxytocin from rat uterine receptor at 10 uM
T2 sequence (whole entry): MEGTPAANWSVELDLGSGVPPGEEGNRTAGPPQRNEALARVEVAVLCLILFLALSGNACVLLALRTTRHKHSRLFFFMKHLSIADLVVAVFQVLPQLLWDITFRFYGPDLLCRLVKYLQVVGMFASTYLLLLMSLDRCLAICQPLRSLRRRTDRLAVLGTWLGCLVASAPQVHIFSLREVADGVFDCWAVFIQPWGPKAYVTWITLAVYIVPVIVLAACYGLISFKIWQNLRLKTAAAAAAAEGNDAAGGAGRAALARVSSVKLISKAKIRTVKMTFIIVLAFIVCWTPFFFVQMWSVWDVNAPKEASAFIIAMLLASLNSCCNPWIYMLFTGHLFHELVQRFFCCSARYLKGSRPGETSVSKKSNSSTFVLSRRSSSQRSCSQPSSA

[8] = target: Vasopressin V1a receptor (Rattus norvegicus) (UniProt P30560); assay: Displacement of [3H]arginine vasopressin from rat liver (AVP-V1a site) at 10 uM
[9] = target: Vasopressin V2 receptor (Rattus norvegicus) (UniProt Q00788); assay: Displacement of [3H]arginine vasopressin from rat kidney medullary (AVP-V2 site) at 10 uM; format: tissue-based
[10] = target: T1, Vasopressin V2 receptor; assay: Concentration required to displace 50% of [3H]arginine vasopressin from rat kidney medullary (AVP-[…] site)
[11] = target: T3, Oxytocin receptor (Rattus norvegicus, UniProt P70536); assay: Concentration required to displace 50% of [3H]oxytocin from rat uterine receptor.
T3 sequence (P70536 whole entry): T2 sequence (whole entry)

[12] = target: T4, Oxytocin receptor (Homo sapiens, UniProt P30559); assay: Compound was evaluated for OT receptor affinity by displacement of [3H]OT from binding sites in uterine tissue taken from nonlabor pregnant women
T4 sequence (P30559 whole entry): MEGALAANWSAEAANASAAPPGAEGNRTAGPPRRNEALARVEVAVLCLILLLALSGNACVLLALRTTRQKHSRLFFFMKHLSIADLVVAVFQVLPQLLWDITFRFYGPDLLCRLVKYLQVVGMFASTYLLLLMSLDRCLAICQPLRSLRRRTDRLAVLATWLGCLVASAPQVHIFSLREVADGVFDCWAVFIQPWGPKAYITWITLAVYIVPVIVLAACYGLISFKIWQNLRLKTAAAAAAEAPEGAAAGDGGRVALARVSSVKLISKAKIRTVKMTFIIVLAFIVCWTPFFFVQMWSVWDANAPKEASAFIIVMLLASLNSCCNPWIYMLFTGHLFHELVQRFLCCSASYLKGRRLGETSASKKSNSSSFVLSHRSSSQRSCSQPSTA

[13] = target: T3, Oxytocin receptor; assay: Compound was evaluated for OT receptor affinity by displacement of [3H]OT from binding sites in uterine tissue taken from pregnant rats
[14] = species on record: Rattus norvegicus; assay: pA2 value by AVP (V1a) stimulated contraction of the isolated rat tail artery; format: functional; conditions: read-out: pA2 (converted)
[15] = target: T1, Vasopressin V2 receptor; assay: Ability to inhibit AVP stimulation of adenylate cyclase activity in the rat kidney medulla (AVP-V2) receptor
[16] = species on record: Rattus norvegicus; assay: Compound was evaluated for the inhibition of accumulation of total [3H]inositol phosphates stimulated by exposure of uterine slices from DES-pretreated rats to OT; format: functional
[17] = species on record: Rattus norvegicus; assay: pA2 value was determined from regression analysis of log (dose ratio-1) vs -log [antagonist] (OT stimulated contractions in isolated uterus from DES-pretreated rats); format: functional; conditions: read-out: pA2 (converted)

T1 sequence (Q00788 whole entry): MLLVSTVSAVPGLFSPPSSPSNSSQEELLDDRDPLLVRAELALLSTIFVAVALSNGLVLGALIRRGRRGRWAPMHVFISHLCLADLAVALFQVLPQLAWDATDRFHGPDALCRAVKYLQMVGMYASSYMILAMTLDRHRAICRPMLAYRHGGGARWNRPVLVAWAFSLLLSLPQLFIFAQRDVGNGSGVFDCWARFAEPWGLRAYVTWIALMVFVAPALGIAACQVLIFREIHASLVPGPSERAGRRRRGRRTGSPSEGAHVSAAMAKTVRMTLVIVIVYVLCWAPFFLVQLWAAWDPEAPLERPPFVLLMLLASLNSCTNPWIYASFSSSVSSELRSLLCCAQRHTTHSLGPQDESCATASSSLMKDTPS
Chain of Vasopressin V1a receptor (P30560 whole entry): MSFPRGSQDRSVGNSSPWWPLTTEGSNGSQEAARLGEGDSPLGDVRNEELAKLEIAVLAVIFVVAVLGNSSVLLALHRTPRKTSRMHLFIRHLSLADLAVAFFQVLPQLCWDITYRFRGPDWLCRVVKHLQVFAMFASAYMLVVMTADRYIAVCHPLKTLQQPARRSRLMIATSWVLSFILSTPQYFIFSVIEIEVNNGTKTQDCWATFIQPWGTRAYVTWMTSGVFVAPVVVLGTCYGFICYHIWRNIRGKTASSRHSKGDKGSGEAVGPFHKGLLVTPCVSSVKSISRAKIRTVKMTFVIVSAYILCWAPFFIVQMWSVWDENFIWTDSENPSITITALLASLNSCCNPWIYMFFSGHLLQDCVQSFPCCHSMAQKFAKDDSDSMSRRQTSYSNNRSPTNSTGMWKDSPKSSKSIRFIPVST
Chain of Vasopressin V2 receptor (Rattus norvegicus) (Q00788 whole entry): as the sequence (Q00788 whole entry) above
Chain of Vasopressin V1a receptor (Rattus norvegicus) (P30560 whole entry, looked up): as the sequence (P30560 whole entry) above

SMILES	solubility [1] [µg/mL]	IC50 [5] [nM]	IC50 [6] [nM]	AD50 [2] [mg/kg]	Kb [4] [nM]	other results
CC[C@H](C)[C@@H]1NC(=O)[C@H](C)NC(=O)[C@@H]2CCCN2C(=O)[C@@H](Cc2ccccc2)N(C)C(=O)[C@@H]2CCCCN2C(=O)[C@H]2CCCCN2C1=O	–	–	–	–	–	inhibition [7]: 0%; inhibition [8]: 0%; inhibition [9]: 4%
CC[C@H](C)[C@@H]1NC(=O)[C@@H](Cc2ccc3ccccc3c2)NC(=O)[C@@H]2CCCN2C(=O)[C@@H](Cc2c[nH]cn2)NC(=O)[C@@H]2CCCCN2C(=O)[C@H]2CCCCN2C1=O (cyclo(I[dPip][Pip][dH]P[d2Nal]))	1500 (≈ 1960 µM)	910	2600	0.102	2.95	IC50 [11]: 2.2 nM; Ki [12]: 5.1 nM; Ki [13]: 0.7 nM; IC50 [3]: 40 nM; Kb [14]: 282 nM; IC50 [15]: 810 nM
CC[C@H](C)[C@@H]1NC(=O)[C@@H](Cc2c[nH]c3ccccc23)NC(=O)[C@@H]2CCCN2C(=O)[C@@H](Cc2c[nH]cn2)NC(=O)[C@@H]2CCCCN2C(=O)[C@H]2CCCCN2C1=O (cyclo(I[dPip][Pip][dH]P[dW])) [listing 1 of 2 here]	–	–	–	–	–	IC50 [16]: 67 nM; Kb [14]: 871 nM; Kb [17]: 2.51 nM
CC[C@H](C)[C@@H]1NC(=O)[C@@H](Cc2c[nH]c3ccccc23)NC(=O)[C@@H]2CCCN2C(=O)[C@@H](Cc2c[nH]cn2)NC(=O)[C@@H]2CCCCN2C(=O)[C@H]2CCCCN2C1=O (cyclo(I[dPip][Pip][dH]P[dW])) [listing 2 of 2 here]	2000 (≈ 2650 µM)	5200	7400	–	–	IC50 [15]: 3100 nM

Further lines, with some results ahead:

solubility [1] [µg/mL]	IC50 [5] [nM]	IC50 [6] [nM]	SMILES	AD50 [2] [mg/kg]	Kb [4] [nM]	other results
1900 (≈ 2520 µM)	1100	–	CC[C@H](C)[C@@H]1NC(=O)[C@@H](Cc2c[nH]c3ccccc23)NC(=O)[C@@H]2CCCN2C(=O)[C@@H](Cc2c[nH]cn2)NC(=O)[C@@H]2CCCCN2C(=O)[C@H]2CCC=NN2C1=O	0.0903	1.51	IC50 [3]: 42 nM
1500 (≈ 2020 µM)	–	800	CC[C@H](C)[C@@H]1NC(=O)[C@@H](Cc2ccccc2)NC(=O)[C@@H]2CCCN2C(=O)[C@@H](Cc2ccccc2)N(C)C(=O)[C@H](CCCN)NC(=O)[C@H]2CCC=NN2C1=O	0.0716	3.39	–
–	–	1600	CC[C@H](C)[C@@H]1NC(=O)[C@@H](Cc2c[nH]c3ccccc23)NC(=O)[C@@H]2CCCN2C(=O)[C@@H](Cc2ccccc2)N(C)C(=O)[C@H](CCCCN)NC(=O)[C@H]2CCCCN2C1=O (cyclo(I[dPip]K[dNMeF]P[dW]))	–	–	IC50 [10]: 410 nM
1400 (≈ 1790 µM)	690	32000	CC[C@H](C)[C@@H]1NC(=O)[C@@H](Cc2c[nH]c3ccccc23)NC(=O)[C@@H]2CCCN2C(=O)[C@@H](Cc2ccccc2)N(C)C(=O)[C@@H]2CNCCN2C(=O)[C@H]2CCCCN2C1=O (cyclo(I[dPip][Pip(4-aza)][dNMeF]P[dW]))	0.101	2.57	IC50 [11]: 8.4 nM; Ki [12]: 4.5 nM; Ki [13]: 3.4 nM

Source: ChEMBL document CHEMBL1125324, “Development of a novel class of cyclic hexapeptide oxytocin antagonists based on a natural product” (J Med Chem, 1992)
